Data: patent publication US20130122127A1, “Extract of Coptidis Rhizoma and novel use thereof in treating respiratory disease” (AHN-GOOK PHARMACEUTICAL CO., LTD., priority 2008, published 2013)
“And” between values parts separate entries of the source, which are not always exact repeats. Equal entries are not always repeated.

Legend:
male mouse = test: Expectorant activity, phenol red secretion method in mouse; assay type: in vivo
Description: In order to measure expectorant activities of Coptidis Rhizoma extracts of the Examples 1-1 to 1-3, experiment was conducted using Engler et al. method ([…]. Pharmacol. Moth. 11, 151 157, 1984, Bao-quin Lin et., Pulmonary Pharmacology & Therapeutics 21, 259 263, 2008.) in the following procedure. A positive control drug (ambroxol, Sigma) and test drugs (Coptidis Rhizoma extract of Examples 1-1 to 1-3) were orally administered to a male mouse (8-weeks age, Sam tako BioKorea), and after 30 minutes, 500 mg/kg of phenol red was intraperitoneally injected (phenol red was dissolved in saline). After 30 minutes, the mouse was anesthetized with diethyl ether, exsanguinated by cutting the abdominal aorta, and then the whole trachea was resected. […] In order to evaluate expectorant activities of the combined extract and single extract prepared in the Example 2 (2-1 to 2-11), experiment was conducted by the same method as described in [Experiment method] of Experiment 3-1, using Engler, et al. method ([…]. Pharmacol. Moth. 11, 151 157, 1984., Bao-quin Lin et., Pulmonary Pharmacology & Therapeutics 21, 259 263, 2008.), of which results are shown in FIG. 2.

[1] = tested on: OVA-sensitized Balb/c mouse; test: Murine asthma model: airway hyper-responsiveness (AHR) to methacholine; assay type: in vivo; conditions: 30 mg/kg oral, Day 14-20
Description: (§1) And, for evaluation, examination of airway hyper-responsiveness (AHR) for methacholine, examination of IgE value in blood plasma, examination of the number of cells and the distribution of white blood cells in bronchoalveolar lavage fluid (BALF), observation of pulmonary tissue, and RT-PCR (IL-1β, IL-4, IL-13r2a) were conducted.
(§2) To a Balb/c mouse (18˜21 g, Orientbio Inc.), an ovalbumin (OVA, Sigma) solution prepared for intraperitoneal injection was intraperitoneally administered in an amount of 500 ul (20 ug as OVA) per one mouse at Day 0 and Day 7, and it was sensitized with a solution prepared for OVA inhalation using a nebulizer (NE-U17, OMRON Co. Ltd, Japan) and then, the prepared 5% OVA solution was inhaled everyday for 30 minutes from Day 14 to Day 20. As positive control drug, 30 mg/kg of montelukast sodium was used, and all the experiment materials were used in an amount of 200 mg/kg. And, positive control drug and the experiment materials were orally administered everyday one hour before OVA inhalation for 7 days of from Day 14 to Day 20 after sensitization, and then, experiments were conducted by the following evaluation items.
24 hours after final inhalation of OVA (at Day 21), the mouse was put in a whole body plethysmograph (BUXCO, USA), each 0.4 ml of methacholine solutions of concentrations of 0, 10 and 20 mg/ml were taken to introduce in an aerosol, and inhaled to the mouse respectively for 3 minutes. And, Penh were measured for 4 minutes from the inhalation time, and the average value was set as Penh (enhanced pause) at corresponding dosage of methacholine.

immunoglobulin E (IgE) = test: Murine asthma model: IgE value in blood plasma (ELISA); assay type: in vivo, mouse; conditions: Day 21, 30 mg/kg oral
Description: as §1
(§3) To a Balb/c mouse (18˜21 g, Orientbio Inc.), an ovalbumin (OVA, Sigma) solution prepared for intraperitoneal injection was intraperitoneally administered in an amount of 500 ul (20 ug as OVA) per one mouse at Day 0 and Day 7, and it was sensitized with a solution prepared for OVA inhalation using a nebulizer (NE-U17, OMRON Co. Ltd, Japan) and then, the prepared 5% OVA solution was inhaled everyday for 30 minutes from Day 14 to Day 20. As positive control drug, 30 mg/kg of montelukast sodium was used, and all the experiment materials were used in an amount of 200 mg/kg. […]
For the animal measured according to 1), about 0.05 ml of blood was collected by orbital blood sampling and centrifuged, and the obtained plasma was divided into two parts and diluted to 1:10 to examine immunoglobulin E (IgE) value in plasma through IgE enzyme linked immunosorbent assay (ELISA; IgE ELISA kit for mouse, ME-151, SHIBAYAGI Co., Ltd., JAPAN).

[2] = tested on: neutrophils and eosinophils in BALF; test: Murine asthma model: number of cells in bronchoalveolar lavage fluid (BALF); assay type: in vivo, mouse; conditions: Day 22, 30 mg/kg oral
Description: as §1, §3
To the animals whose blood was sampled according to 2), sodium pentothal (50 mg/kg) was injected intraperitoneally to anesthetize it. […] For the suspension, the numbers of total leucocytes, neutrophils, eosinophils and lymphocytes were measured using automated hematology analyzers (Advia 120 coulter counter, BAYER, Germany).

pulmonary tissue = test: Murine asthma model: observation of pulmonary tissue; assay type: in vivo, mouse; conditions: score 1=No, 2=slight, 3=thin, 4=moderate, 5=thick; 30 mg/kg oral
Description: as §1, §2
The left lung fixed with a nipper was taken off and fixed with a 10% formalin solution for one day, and then, paraffin-penetrated tissue using a tissue processor was cut to a thickness of 3-4 um using a microtome to make tissue fragments. […]

IL-1β = test: Murine asthma model: RT-PCR of lung tissue, IL-1β; assay type: in vivo, mouse; conditions: band density divided by actin density, 30 mg/kg oral
Description: as §1, §3
(§4) Right pulmonary tissue was rapidly taken off and stored at −80° C. before experiment. RNA was separated from the tissue using RNA-Bee (Tel-Test Inc. USA), and the separated RNA was quantified at 260 nm using a spectrometer, and then, 4 ug of RNA and Oligo dT 2 ul (Promega), DEPC water were added to make 10 ul and the mixture was reacted at 65 r for 5 minutes. […]

IL-4 = test: Murine asthma model: RT-PCR of lung tissue, IL-4; assay type: in vivo, mouse; conditions: band density divided by actin density, 30 mg/kg oral
Description: as §1, §3, §4

IL-13r2a = test: Murine asthma model: RT-PCR of lung tissue, IL-13r2a; assay type: in vivo, mouse; conditions: band density divided by actin density, 30 mg/kg oral
Description: as §1, §3, §4

peritoneal mast cell = test: Antihistamine activity, compound 48/80-induced histamine release from peritoneal mast cells of ovalbumin-sensitized rat; assay type: cell-based; conditions: oral dosage 5 mg/kg
Description: In order to measure antihistamine activity of Coptidis Rhizoma extract of Examples 1-1 to 1-3, experiment was conducted using Honuchi et al. method (Masako Honuchi and Yoshiyuki Seyama, J. Health Sci., 52(6), 711˜717, 2006., Naoki Inagaki et al. Biol. Pharm. Bull. 24(7), 829˜834, 2001.) in the following procedure.
Antihistamine effect was measured using peritoneal mast cell of a male rat (7-weeks age, Sam tako BioKorea) sensitized with ovalbumin As positive control, Ketotifen (Sigma) was used. To a rat sensitized with ovalbumin, Ketotifen was orally administered at a concentration of 5 mg/kg, and test drugs were orally administered respectively at a concentration of 200 mg/kg for 4 days, and then, peritoneal mast cells were separated. The separated peritoneal mast cells (2×10^5 cells/ml) were treated with Ketotifen at concentrations of 0.01 mg/ml, 0.1 mg/ml, and 1.0 mg/ml, and test drugs at concentrations of 0.1 mg/ml, 1.0 mg/ml, and 10 mg/ml. Finally, the mast cells were treated with compound 48/80 (Sigma) which activates non-immunological histamine release at a concentration of 10 μg/ml. At this time, the amount of histamine released from mast cells was quantified to examine whether the test materials suppress release of histamine from the mast cells. The relative amount of histamine released from mast cell in a rat to which no drug was administered was measured, of which results are presented in the following Table 5.
In order to measure antihistamine activities of 5 sub-fractions prepared in the above Example 1-4, the same experiment was conducted as the above Experiment 3-3, of which results are presented in the following Table 8.
In order to measure antihistamine effect of ivy leaf extract, and combined extract of Coptidis Rhizoma with ivy leaf (Examples 2-1 to 2-11) prepared in Example 2 in mast cell, experiment was conducted by the same method as described in [Experiment method] in Experiment 3-3 using Honuchi et al. method (Masako Honuchi and Yoshiyuki Seyama, J. Health Sci., 52(6), 711˜717, 2006., Naoki Inagaki et. Biol. Pharm. Bull. 24(7), 829˜834, 2001.), of which results are presented in the following Table 13.

male guinea pig = test: Antitussive activity, citric acid-induced cough in guinea pig; assay type: in vivo; conditions: oral 50 mg/kg, 0.2M citric acid
Description: In order to measure antitussive activity of Coptidis Rhizoma extracts of Examples 1-1 to 1-3, experiment was conducted using Tanaka et al. method (Motomu Tanaka and Kei Maruyama., J. Pharmacol. Sci. 93, 465˜470, 2003., Daoui, Cognon, Naline et., Am. J. Respir. Crit. Care. Med. 158, 42˜48, 1998) in the following procedure.
A test drug was orally administered to a male guinea pig (6-weeks age, Sam tako BioKorea), and after 1 hour, the guinea pig was put in a plethysmograph chamber (Buxco, U.S.A.), and then, a cough inducer, citric acid (Sigma) was nebulized to induce cough. As positive control, theobromine (Sigma) which is used as an antitussive was used. And, the guinea pig was exposed to 0.2M citric acid for 10 minutes, and the number of coughs occurred was measured for 15 minutes.
In order to measure antitussive activities of 5 sub-fractions prepared in the above Example 1-4, experiment for antitussive activity was conducted by the same method as Experiment 3-2, of which results are presented in the following Table 7. […]

COc1ccc2cc3[n+](cc2c1OC)CCc1cc2c(cc1-3)OCO2 [Berberine, berberine]
Capacity to discharge sputum (%) (male mouse; oral 125 mg/kg): 39%

CC(C)(O)c1ccccc1CC[C@@H](SCC1(CC(=O)O)CC1)c1cccc(/C=C/c2ccc3ccc(Cl)cc3n2)c1 [montelukast, montelukast sodium]
Penh value according to methacholine dosage ([1]; methacholine 0 mg/ml): 1.5 ± 0.2 | Penh value according to methacholine dosage ([1]; methacholine 10 mg/ml): 8.4 ± 2.4 | Penh value according to methacholine dosage ([1]; methacholine 20 mg/ml): 19.8 ± 5.4 | IgE level (immunoglobulin E (IgE)): 13.7 ± 5.7 ng/mL | WBC EOS (eosinophil) [2]: 466.0 ± 207.0 ×10^3 cells | WBC NEU (neutrophil) [2]: 22.3 ± 7.2 ×10^3 cells | Microscope observation: Degree of infiltration of inflammatory cells (pulmonary tissue): 3.7 ± 0.5 | Microscope observation: Degree of occlusion of bronchus (pulmonary tissue): 3.5 ± 0.5 | Degree of cytokine expression IL-1β (IL-1β): 0.51 ± 0.26 | Degree of cytokine expression IL-4 (IL-4): 1.47 ± 0.48 | Degree of cytokine expression IL-13r2a (IL-13r2a): 0.37 ± 0.31

CN1CCC(=C2c3ccccc3CC(=O)c3sccc32)CC1 [Ketotifen]
Histamine release amount (%) (peritoneal mast cell; mast cell treatment 0 mg/ml): 43% and 44% | Histamine release amount (%) (peritoneal mast cell; mast cell treatment 0.01 mg/ml): 41% | Histamine release amount (%) (peritoneal mast cell; mast cell treatment 0.1 mg/ml): 32% | Histamine release amount (%) (peritoneal mast cell; mast cell treatment 1.0 mg/ml): 18% and 19%

Cn1cnc2c1c(=O)[nH]c(=O)n2C [Theobromine, theobromine]
Capacity to suppress cough (%) (male guinea pig): 57% and 56%

Nc1c(Br)cc(Br)cc1CN[C@H]1CC[C@H](O)CC1 [Ambroxol, ambroxol]
Capacity to discharge sputum (%) (male mouse; oral 250 mg/kg): 34% | Capacity to secrete sputum (%) (male mouse; oral 250 mg/kg, 250 mg/kg): 32% and 30%
